From the CheMixHub viscosity set
± gives the uncertainty stated by the source.

Test: xn = mol fraction of the nth substance listed

COCCO + CCCO
Details	viscosity [mPa·s]
298.15 K, 100 kPa, x1 = 0.1005	1.79 ± 0.04
298.15 K, 100 kPa, x1 = 0.2016	1.68 ± 0.04
298.15 K, 100 kPa, x1 = 0.3013	1.61 ± 0.03
298.15 K, 100 kPa, x1 = 0.4012	1.56 ± 0.03
298.15 K, 100 kPa, x1 = 0.5013	1.53 ± 0.03
298.15 K, 100 kPa, x1 = 0.6005	1.52 ± 0.03
298.15 K, 100 kPa, x1 = 0.7008	1.52 ± 0.03
298.15 K, 100 kPa, x1 = 0.8003	1.52 ± 0.03
298.15 K, 100 kPa, x1 = 0.9001	1.54 ± 0.03
298.15 K, 101 kPa, x1 = 0.08067	1.901 ± 0.19
298.15 K, 101 kPa, x1 = 0.1649	1.776 ± 0.18
298.15 K, 101 kPa, x1 = 0.2529	1.692 ± 0.17
298.15 K, 101 kPa, x1 = 0.3449	1.65 ± 0.17
298.15 K, 101 kPa, x1 = 0.4413	1.624 ± 0.16
298.15 K, 101 kPa, x1 = 0.5423	1.601 ± 0.16
298.15 K, 101 kPa, x1 = 0.6482	1.59 ± 0.16
298.15 K, 101 kPa, x1 = 0.7596	1.58 ± 0.16
298.15 K, 101 kPa, x1 = 0.8767	1.571 ± 0.16
298.15 K, 101.33 kPa, x1 = 0.0072	1.938 ± 0.015
298.15 K, 101.33 kPa, x1 = 0.0141	1.926 ± 0.015
298.15 K, 101.33 kPa, x1 = 0.0297	1.898 ± 0.015
298.15 K, 101.33 kPa, x1 = 0.0471	1.867 ± 0.015
298.15 K, 101.33 kPa, x1 = 0.062	1.844 ± 0.015
308.15 K, 101 kPa, x1 = 0.08067	1.34 ± 0.13
308.15 K, 101 kPa, x1 = 0.1014	1.435 ± 0.023
308.15 K, 101 kPa, x1 = 0.1502	1.402 ± 0.022
308.15 K, 101 kPa, x1 = 0.1649	1.264 ± 0.13
308.15 K, 101 kPa, x1 = 0.2508	1.351 ± 0.022
308.15 K, 101 kPa, x1 = 0.2529	1.249 ± 0.13
308.15 K, 101 kPa, x1 = 0.3049	1.331 ± 0.021
308.15 K, 101 kPa, x1 = 0.3449	1.227 ± 0.12
308.15 K, 101 kPa, x1 = 0.3667	1.301 ± 0.021
308.15 K, 101 kPa, x1 = 0.4257	1.303 ± 0.021
308.15 K, 101 kPa, x1 = 0.4413	1.206 ± 0.12
308.15 K, 101 kPa, x1 = 0.4838	1.28 ± 0.021
308.15 K, 101 kPa, x1 = 0.5161	1.278 ± 0.021
308.15 K, 101 kPa, x1 = 0.5378	1.276 ± 0.021
308.15 K, 101 kPa, x1 = 0.5423	1.179 ± 0.12
308.15 K, 101 kPa, x1 = 0.5647	1.279 ± 0.021
308.15 K, 101 kPa, x1 = 0.6129	1.27 ± 0.021
308.15 K, 101 kPa, x1 = 0.6482	1.154 ± 0.12
308.15 K, 101 kPa, x1 = 0.67	1.252 ± 0.02
308.15 K, 101 kPa, x1 = 0.7387	1.25 ± 0.02
308.15 K, 101 kPa, x1 = 0.7596	1.131 ± 0.11
308.15 K, 101 kPa, x1 = 0.7685	1.251 ± 0.02
308.15 K, 101 kPa, x1 = 0.8213	1.251 ± 0.02
308.15 K, 101 kPa, x1 = 0.8767	1.125 ± 0.11
308.15 K, 101 kPa, x1 = 0.8898	1.253 ± 0.02
308.15 K, 101 kPa, x1 = 0.9239	1.253 ± 0.02
308.15 K, 101 kPa, x1 = 0.9491	1.26 ± 0.02
308.15 K, 101 kPa, x1 = 0.9574	1.264 ± 0.02
308.15 K, 101 kPa, x1 = 0.9686	1.277 ± 0.021
308.15 K, 101 kPa, x2 = 0.0129	1.288 ± 0.021
308.15 K, 101.33 kPa, x1 = 0.117	1.362 ± 0.011
308.15 K, 101.33 kPa, x1 = 0.1795	1.319 ± 0.011
308.15 K, 101.33 kPa, x1 = 0.3024	1.26 ± 0.011
308.15 K, 101.33 kPa, x1 = 0.4526	1.207 ± 0.01
308.15 K, 101.33 kPa, x1 = 0.5265	1.192 ± 0.01
308.15 K, 101.33 kPa, x1 = 0.6439	1.185 ± 0.01
308.15 K, 101.33 kPa, x1 = 0.7915	1.182 ± 0.01
308.15 K, 101.33 kPa, x1 = 0.8693	1.174 ± 0.01
313.15 K, 100 kPa, x1 = 0.1005	1.3 ± 0.03
313.15 K, 100 kPa, x1 = 0.2016	1.23 ± 0.03
313.15 K, 100 kPa, x1 = 0.3013	1.19 ± 0.03
313.15 K, 100 kPa, x1 = 0.4012	1.16 ± 0.02
313.15 K, 100 kPa, x1 = 0.5013	1.15 ± 0.02
313.15 K, 100 kPa, x1 = 0.6005	1.14 ± 0.02
313.15 K, 100 kPa, x1 = 0.7008	1.14 ± 0.02
313.15 K, 100 kPa, x1 = 0.8003	1.15 ± 0.02
313.15 K, 100 kPa, x1 = 0.9001	1.16 ± 0.02
318.15 K, 101 kPa, x1 = 0.08067	1.099 ± 0.11
318.15 K, 101 kPa, x1 = 0.1014	1.168 ± 0.019
318.15 K, 101 kPa, x1 = 0.1502	1.142 ± 0.019
318.15 K, 101 kPa, x1 = 0.1649	1.058 ± 0.11
318.15 K, 101 kPa, x1 = 0.2508	1.089 ± 0.018
318.15 K, 101 kPa, x1 = 0.2529	1.003 ± 0.1
318.15 K, 101 kPa, x1 = 0.3049	1.079 ± 0.018
318.15 K, 101 kPa, x1 = 0.3449	0.9764 ± 0.098
318.15 K, 101 kPa, x1 = 0.3667	1.062 ± 0.018
318.15 K, 101 kPa, x1 = 0.4257	1.052 ± 0.018
318.15 K, 101 kPa, x1 = 0.4413	0.9794 ± 0.098
318.15 K, 101 kPa, x1 = 0.4838	1.036 ± 0.017
318.15 K, 101 kPa, x1 = 0.5161	1.029 ± 0.017
318.15 K, 101 kPa, x1 = 0.5378	1.032 ± 0.017
318.15 K, 101 kPa, x1 = 0.5423	0.9701 ± 0.097
318.15 K, 101 kPa, x1 = 0.5647	1.028 ± 0.017
318.15 K, 101 kPa, x1 = 0.6129	1.021 ± 0.017
318.15 K, 101 kPa, x1 = 0.6482	0.9645 ± 0.097
318.15 K, 101 kPa, x1 = 0.67	1.017 ± 0.017
318.15 K, 101 kPa, x1 = 0.7387	1.018 ± 0.017
318.15 K, 101 kPa, x1 = 0.7596	0.9589 ± 0.096
318.15 K, 101 kPa, x1 = 0.7685	1.018 ± 0.017
318.15 K, 101 kPa, x1 = 0.8213	1.016 ± 0.017
318.15 K, 101 kPa, x1 = 0.8767	0.9552 ± 0.096
318.15 K, 101 kPa, x1 = 0.8898	1.022 ± 0.017
318.15 K, 101 kPa, x1 = 0.9239	1.025 ± 0.017
318.15 K, 101 kPa, x1 = 0.9491	1.029 ± 0.017
318.15 K, 101 kPa, x1 = 0.9574	1.028 ± 0.017
318.15 K, 101 kPa, x1 = 0.9686	1.027 ± 0.017
318.15 K, 101 kPa, x2 = 0.0129	1.029 ± 0.017

CCCCNCCCC + CC(C)(C)O
viscosity [mPa·s]
Details	298.15 K	303.15 K	308.15 K	313.15 K	318.15 K	323.15 K
101 kPa, x2 = 0.1	–	0.8289 ± 0.01	0.7649 ± 0.0097	0.7079 ± 0.009	0.658 ± 0.0083	0.6131 ± 0.0078
101 kPa, x2 = 0.2	–	0.8953 ± 0.011	0.8203 ± 0.01	0.7551 ± 0.0095	0.6972 ± 0.0088	0.6454 ± 0.0081
101 kPa, x2 = 0.3	–	0.976 ± 0.012	0.8884 ± 0.011	0.8111 ± 0.01	0.7456 ± 0.0093	0.6862 ± 0.0086
101 kPa, x2 = 0.4	–	1.082 ± 0.013	0.9747 ± 0.012	0.8862 ± 0.011	0.8031 ± 0.0099	0.7331 ± 0.0091
101 kPa, x2 = 0.4999	–	1.217 ± 0.015	1.085 ± 0.013	0.9769 ± 0.012	0.8802 ± 0.011	0.7968 ± 0.0098
101 kPa, x2 = 0.55	–	1.302 ± 0.016	1.153 ± 0.014	1.027 ± 0.013	0.92 ± 0.011	0.829 ± 0.01
101 kPa, x2 = 0.6001	–	1.391 ± 0.017	1.228 ± 0.015	1.087 ± 0.013	0.9714 ± 0.012	0.8676 ± 0.011
101 kPa, x2 = 0.65	–	1.513 ± 0.018	1.32 ± 0.016	1.16 ± 0.014	1.027 ± 0.013	0.9126 ± 0.011
101 kPa, x2 = 0.7	–	1.647 ± 0.02	1.423 ± 0.017	1.24 ± 0.015	1.089 ± 0.013	0.9614 ± 0.012
101 kPa, x2 = 0.8001	–	2.011 ± 0.025	1.696 ± 0.021	1.441 ± 0.018	1.245 ± 0.015	1.08 ± 0.013
101 kPa, x2 = 0.9	–	2.559 ± 0.031	2.087 ± 0.026	1.71 ± 0.021	1.45 ± 0.018	1.232 ± 0.015
101 kPa, x2 = 0.95	–	2.937 ± 0.036	2.352 ± 0.029	1.91 ± 0.023	1.583 ± 0.019	1.333 ± 0.016
101.33 kPa, x1 = 0.0672	3.548	–	2.271	–	1.565	–
101.33 kPa, x1 = 0.0989	3.272	–	2.133	–	1.497	–
101.33 kPa, x1 = 0.1393	2.953	–	1.97	–	1.409	–
101.33 kPa, x1 = 0.1939	2.586	–	1.782	–	1.303	–
101.33 kPa, x1 = 0.2674	2.165	–	1.559	–	1.172	–
101.33 kPa, x1 = 0.3319	1.893	–	1.402	–	1.077	–
101.33 kPa, x1 = 0.405	1.643	–	1.25	–	0.984	–
101.33 kPa, x1 = 0.4915	1.419	–	1.109	–	0.895	–
101.33 kPa, x1 = 0.5791	1.248	–	0.999	–	0.816	–
101.33 kPa, x1 = 0.6466	1.143	–	0.93	–	0.769	–
101.33 kPa, x1 = 0.6907	1.086	–	0.89	–	0.745	–
101.33 kPa, x1 = 0.776	0.994	–	0.825	–	0.7	–
101.33 kPa, x1 = 0.8387	0.932	–	0.783	–	0.671	–
101.33 kPa, x1 = 0.8867	0.889	–	0.752	–	0.654	–
101.33 kPa, x1 = 0.9129	0.872	–	0.742	–	0.642	–
101.33 kPa, x1 = 0.9471	0.845	–	0.724	–	0.629	–
